Tests used:
Assay type in all cases: in vivo
[1] = tested on: green peach aphid (Myzus persicae) (mixed life stages); assay: Action on green peach aphid, liquid artificial diet under artificial membrane; details: 72 h, 800 ppm, adult aphids on treated aphid diet, 3 days, read-out: mortality in comparison with untreated controls
Excerpt: Example B8: Action on Green Peach Aphid (Myzus persicae) (Mixed Life Stages)
For evaluating control of green peach aphid (Myzus persicae) through systemic means the test unit consisted of 96-well-microtiter plates containing liquid artificial diet under an artificial membrane.
The compounds were formulated using a solution containing 75% v/v water and 25% v/v DMSO. Different concentrations of formulated compounds were pipetted into the aphid diet, using a custom built pipetter, at two replications.
After application, 5-8 adult aphids were placed on the artificial membrane inside the microtiter plate wells. The aphids were then allowed to suck on the treated aphid diet and incubated at about 23±1° C. and about 50±5% relative humidity for 3 days. Aphid mortality and fecundity was then visually assessed.

[2] = tested on: vetch aphid (Megoura viciae); assay: Action on vetch aphid, broad bean leaf disks in 24-well microtiter plates; details: foliar, 120 h, adult aphids on treated leaf disks, 5 days, read-out: mortality in comparison with untreated controls
Procedure: Example B7: Action on Vetch Aphid (Megoura viciae)
For evaluating control of vetch aphid (Megoura viciae) through contact or systemic means the test unit consisted of 24-well-microtiter plates containing broad bean leaf disks.
The compounds were formulated using a solution containing 75% v/v water and 25% v/v DMSO. Different concentrations of formulated compounds were sprayed onto the leaf disks at 2.5 μl, using a custom built micro atomizer, at two replications.
After application, the leaf disks were air-dried and 5-8 adult aphids placed on the leaf disks inside the microtiter plate wells. The aphids were then allowed to suck on the treated leaf disks and incubated at about 23±1° C. and about 50±5% relative humidity for 5 days. Aphid mortality and fecundity was then visually assessed.

[3] = tested on: Mediterranean fruitfly (Ceratitis capitata); assay: Action on Mediterranean fruitfly, eggs on insect diet in microtiter plates; details: 120 h, egg and larval mortality visually assessed after 5 days, read-out: mortality in comparison with untreated controls
How it was run: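 Microtiter plates held insect diet plus 50-80 C. capitata eggs; compounds in 75% water/25% DMSO were sprayed onto the diet at several concentrations, two replicates. Plates were kept at about […] and […] relative humidity for 5 days, then egg and larval mortality was scored visually.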

Measured: mortality at 800 ppm

Cc1ccc(C(C)C)c(N2C(=O)CS/C2=N\N=C\c2ccc3c(ccc4c3ncn4-c3ccc(OC(F)(F)F)cc3)n2)c1 [Compound C-6, (2Z)-3-(2-isopropyl-5-methyl-phenyl)-2-[(E)-[3-[4-(trifluoromethoxy)phenyl]imidazo[4,5-f]quinolin-7-yl]methylenehydrazono]thiazolidin-4-one]
≥ 75%: all assays above
